Experimental findings from ChEMBL document CHEMBL4145552, “Marine derived xyloketal derivatives exhibit anti-stress and anti-ageing effects through HSF pathway in Caenorhabditis elegans” (2018) are described below.

Calls of active or inactive are those of the source. No cut-off for these calls is given here.

Test [1] concerns Caenorhabditis elegans. The test can be described thus: Protection against thermal stress in Caenorhabditis elegans N2 assessed as increase in mean survival time at 100 uM at 37 degC measured every 1 hr post treatment relative to control. It is filed as functional.
Test [2] concerns Caenorhabditis elegans. The test can be described thus: Protection against thermal stress in Caenorhabditis elegans N2 assessed as increase in mean survival time at 300 uM at 37 degC measured every 1 hr post treatment relative to control. It is filed as functional.
Test [3] relates to Caenorhabditis elegans. The test can be described thus: Anti-ageing activity in Caenorhabditis elegans N2 assessed as increase in rate of health span on pumping in lifespan at 300 uM measured for 10 secs at 2 days time interval up to 21 days by dissecting microscopic method relative to control. The test is classed as functional.
Test [4] relates to Caenorhabditis elegans. The test can be described thus: Anti-ageing activity in Caenorhabditis elegans N2 assessed as increase in rate of health span in maximal lifespan at 300 uM. It is filed as functional, organism-based.
The test system of test [5] is Caenorhabditis elegans. The test can be described thus: Anti-ageing activity in Caenorhabditis elegans PS3551 harboring HSF-1 mutant assessed as increase in life span by measuring mean survival time measured up to 20 days post treatment (reference value: 10.89 +/- 0.17 day). The test is classed as functional.
Test [6] has as its system Caenorhabditis elegans. The test can be described thus: Anti-ageing activity in Caenorhabditis elegans N2 assessed as increase in life span at 300 uM relative to control. It is filed as functional.
Test [7] deals with Caenorhabditis elegans. The test can be described thus: Protection against amyloid beta aggregation-induced paralysis in Caenorhabditis elegans CL4176 harboring temperature-inducible human amyloid beta (3 to 42) transgene assessed as time delay in progression of paralysis at 26 degC after 36 hrs. It is filed as functional.
For test [8], the system named is Caenorhabditis elegans. The test can be described thus: Protection against thermal stress in Caenorhabditis elegans PS3551 harboring HSF-1 mutant assessed as mean survival time at 37 degC measured every 1 hr up to 8 hrs post treatment (reference value: 4.37 +/- 0.1 hrs). It is filed as functional.
Test [9] deals with Caenorhabditis elegans. The test can be described thus: In vivo activation of HSF-1 pathway in Caenorhabditis elegans N2 assessed as increase in HSP70 protein expression by Western blot analysis relative to control. It is filed as functional. (In general: Immunoblotting shows a protein as a band on a membrane.)
In test [10] the test system is Caenorhabditis elegans. The test can be described thus: Anti-ageing activity in Caenorhabditis elegans N2 assessed as increase in rate of health span on bending in lifespan at 300 uM measured for 3 secs at 3 days time interval up to 16 days relative to control. The test is classed as functional.

Take `COc1ccc(NC(=O)c2c(O)c3c(c4c2O[C@@]2(C)OC[C@H](C)[C@H]2C4)O[C@@]2(C)OC[C@H](C)[C@H]2C3)cc1`: in the test on Caenorhabditis elegans [1], the result was Active.

As to `COC(=O)c1c(O)c2c(c3c1O[C@@]1(C)OC[C@H](C)[C@H]1C3)O[C@@]1(C)OC[C@H](C)[C@H]1C2`, the outcome with Caenorhabditis elegans [2] and in the test with Caenorhabditis elegans [1] was Active. Take `C[C@H]1CO[C@]2(C)Oc3c(c4c(c5c3C[C@@H]3[C@@H](C)CO[C@]3(C)O5)CN(c3ccc([N+](=O)[O-])cc3)CO4)C[C@H]12`: in the test with Caenorhabditis elegans [1], the result was inactive.

In the case of `COC(=O)C(Cc1ccc(O)cc1)NC(=O)c1c(O)c2c(c3c1O[C@@]1(C)OC[C@H](C)[C@H]1C3)O[C@@]1(C)OC[C@H](C)[C@H]1C2` (stereo not given in full), the outcome with Caenorhabditis elegans [2] and in the test on Caenorhabditis elegans [1] was Active.

For the compound `C[C@H]1CO[C@]2(C)Oc3c(c4c(c5c3C[C@@H]3[C@@H](C)CO[C@]3(C)O5)CN(CCOCCO)CO4)C[C@H]12`, the outcome in the test on Caenorhabditis elegans [1] was Active. `C[C@H]1CO[C@]2(C)Oc3c(c4c(c5c3C[C@@H]3[C@@H](C)CO[C@]3(C)O5)CN(c3ccc(I)cc3)CO4)C[C@H]12`: the outcome in the test with Caenorhabditis elegans [1] was Active. For `CCCCN1COc2c3c(c4c(c2C1)O[C@@]1(C)OC[C@H](C)[C@H]1C4)O[C@@]1(C)OC[C@H](C)[C@H]1C3`, in the test with Caenorhabditis elegans [1], the result was Active. As for `COC(=O)c1c(O)c2c(c3c1OC1OCCCC1C3)OC1OCCCC1C2` (stereo not given), the outcome in the test on Caenorhabditis elegans [1] was Active.

As for `C[C@H]1CO[C@]2(C)Oc3c(c4c(c5c3C[C@@H]3[C@@H](C)CO[C@]3(C)O5)CN(c3ccc(C(=O)O)cc3)CO4)C[C@H]12`, the result in the test with Caenorhabditis elegans [1] was Active.

`C[C@H]1CO[C@]2(C)Oc3c(c4c(c5c3C[C@@H]3[C@@H](C)CO[C@]3(C)O5)CN(c3ccc(O)cc3)CO4)C[C@H]12`: the Activity in the test with Caenorhabditis elegans [3] is given as 16%; with Caenorhabditis elegans [6] it was 11%; in the test with Caenorhabditis elegans [9], 28%; in the test with Caenorhabditis elegans [2], “<=23.96%”; with Caenorhabditis elegans [10], “<=22%”; in the test on Caenorhabditis elegans [1], 15.38%. The result with Caenorhabditis elegans [4] was Active. Also, the MST in the test on Caenorhabditis elegans [5] was 10.99 days; with Caenorhabditis elegans [8] it was 4.32 h. Further, in the test on Caenorhabditis elegans [7], the Time is 2.8 h.

`C[C@H]1CO[C@]2(C)Oc3c(c4c(c5c3C[C@@H]3[C@@H](C)CO[C@]3(C)O5)CN(C)CO4)C[C@H]12`: the result with Caenorhabditis elegans [1] was Active.

As to `C[C@H]1CO[C@]2(C)Oc3c(c(O)c(C(=O)Nc4ccc(F)cc4)c4c3C[C@@H]3[C@@H](C)CO[C@]3(C)O4)C[C@H]12`, the result with Caenorhabditis elegans [1] was Active. On to `COC(=O)CNC(=O)c1c(O)c2c(c3c1O[C@@]1(C)OC[C@H](C)[C@H]1C3)O[C@@]1(C)OC[C@H](C)[C@H]1C2`, for which the outcome with Caenorhabditis elegans [2] and in the test on Caenorhabditis elegans [1] was Active. In the case of `C[C@H]1CO[C@]2(C)Oc3c(c4c(c5c3C[C@@H]3[C@@H](C)CO[C@]3(C)O5)CN(c3ccc(Cl)cc3)CO4)C[C@H]12`, the outcome in the test with Caenorhabditis elegans [1] was Active.

With `C[C@H]1CO[C@]2(C)Oc3cc(OC/C=C/c4ccccc4)c4c(c3C[C@H]12)O[C@@]1(C)OC[C@H](C)[C@H]1C4`, the outcome with Caenorhabditis elegans [1] was inactive. Turning to `C[C@H]1CO[C@]2(C)Oc3c(c4c(c5c3C[C@@H]3[C@@H](C)CO[C@]3(C)O5)CN(c3ccc(Br)cc3)CO4)C[C@H]12`, the outcome in the test with Caenorhabditis elegans [2] and in the test with Caenorhabditis elegans [1] was Active. With `C[C@H]1CO[C@]2(C)Oc3cc(O)c4c(c3C[C@H]12)O[C@@]1(C)OC[C@H](C)[C@H]1C4`, the result in the test with Caenorhabditis elegans [2] and in the test with Caenorhabditis elegans [1] was Active.

Consider `Oc1cc2c(c3c1CC1CCCOC1O3)CC1CCCOC1O2` (stereo not given), for which the result in the test with Caenorhabditis elegans [1] was Active. As for `COC(=O)C(Cc1cc2ccccc2[nH]1)NC(=O)c1c(O)c2c(c3c1O[C@@]1(C)OC[C@H](C)[C@H]1C3)O[C@@]1(C)OC[C@H](C)[C@H]1C2` (stereo not given in full), the outcome with Caenorhabditis elegans [1] was Active. On the same count and under the same terms, the value for `C[C@H]1CO[C@]2(C)Oc3c(c4c(c5c3C[C@@H]3[C@@H](C)CO[C@]3(C)O5)CN(c3ccccc3)CO4)C[C@H]12` was “inactive”; that for `C[C@H]1CO[C@]2(C)Oc3c(c(O)c(C(=O)O)c4c3C[C@@H]3[C@@H](C)CO[C@]3(C)O4)C[C@H]12` was “Active”.

Regarding `O=c1c(O)c(-c2ccc(O)c(O)c2)oc2cc(O)cc(O)c12` [QUERCETIN], the Activity in the test with Caenorhabditis elegans [1] was 8.81%.

Consider `C[C@H]1CO[C@]2(C)Oc3c(c(O)c(C(=O)NCCc4ccc(O)cc4)c4c3C[C@@H]3[C@@H](C)CO[C@]3(C)O4)C[C@H]12`, for which the result in the test with Caenorhabditis elegans [1] was Active. In the case of `CNC(=O)c1c(O)c2c(c3c1OC1OCCCC1C3)OC1OCCCC1C2` (stereo not given), the outcome in the test on Caenorhabditis elegans [1] was Active. As to `CC1CC2Cc3c(cc(O)c4c3OC3(C)OC(C)CC3C4)OC2(C)O1` (stereo not given), the outcome with Caenorhabditis elegans [1] was inactive. As to `CCCCSC(=O)c1c(O)c2c(c3c1OC1OCCCC1C3)OC1OCCCC1C2` (stereo not given), in the test on Caenorhabditis elegans [1], the result was Active.

For the compound `COc1ccc(N2COc3c4c(c5c(c3C2)O[C@@]2(C)OC[C@H](C)[C@H]2C5)O[C@@]2(C)OC[C@H](C)[C@H]2C4)cc1`, the outcome in the test with Caenorhabditis elegans [1] was Active.

Take `COC1(C)CCc2c(cc(O)c3c2OC(C)(OC)CC3)O1` (stereo not given): the outcome in the test on Caenorhabditis elegans [1] was Active.

As for `CCCCOc1cc2c(c3c1C[C@@H]1[C@@H](C)CO[C@]1(C)O3)C[C@@H]1[C@@H](C)CO[C@]1(C)O2`, the result in the test with Caenorhabditis elegans [2] and in the test on Caenorhabditis elegans [1] was Active. On to `C[C@H]1CO[C@]2(C)Oc3c(c4c(c5c3C[C@@H]3[C@@H](C)CO[C@]3(C)O5)CN(c3ccc(F)cc3)CO4)C[C@H]12`, for which the outcome in the test with Caenorhabditis elegans [1] was Active.
